Results from ChEMBL document CHEMBL1201862, “PubChem BioAssay data set” (2004).
Calls of active or inactive are those of the source.

How the values were obtained:
[1] = viability of uninfected HEp-2 cells – cell-based, HTS, cytotoxicity control for RSV inhibitor project, dose response (AID 2410); format: functional; conditions: human respiratory syncytial virus
Phospholipase A2 = Phospholipase A2 (Homo sapiens, UniProt P04054); format: functional;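 note: confirmatory dose-response counterscreen on phospholipase A2, testing hits that came from an ultra-high-throughput screen for ATG4B inhibitors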
Phospholipase A2, sequence (P04054 whole entry): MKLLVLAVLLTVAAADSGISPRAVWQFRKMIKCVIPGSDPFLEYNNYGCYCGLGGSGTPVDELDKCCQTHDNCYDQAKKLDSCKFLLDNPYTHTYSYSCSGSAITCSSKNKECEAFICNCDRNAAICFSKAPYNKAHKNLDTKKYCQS

Cysteine protease ATG4B = Cysteine protease ATG4B (Homo sapiens, UniProt Q9Y4P1); format: functional;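 note: Fluorescence-based dose-response confirmation assay measuring inhibition of ATG4B activity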
Cysteine protease ATG4B, sequence (Q9Y4P1 whole entry): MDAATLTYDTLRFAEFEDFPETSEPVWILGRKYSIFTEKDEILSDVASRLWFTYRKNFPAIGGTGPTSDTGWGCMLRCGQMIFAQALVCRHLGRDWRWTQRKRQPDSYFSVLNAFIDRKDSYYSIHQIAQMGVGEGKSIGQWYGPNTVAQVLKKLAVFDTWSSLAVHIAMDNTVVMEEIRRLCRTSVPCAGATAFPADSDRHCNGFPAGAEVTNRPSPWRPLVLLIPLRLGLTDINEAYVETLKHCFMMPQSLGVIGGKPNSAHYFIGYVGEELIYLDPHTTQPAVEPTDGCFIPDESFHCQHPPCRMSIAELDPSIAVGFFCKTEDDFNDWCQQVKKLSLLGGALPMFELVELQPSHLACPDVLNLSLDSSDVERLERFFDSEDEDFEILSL

[2] = molecular target: T1, High affinity choline transporter 1 (Homo sapiens, UniProt Q9GZV3); experiment: human choline transporter blockers, potency – cell-based, 10-point CRC, membrane potential dye, dose response (AID 588401); format: functional;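 note: membrane potential dye fluorescence of choline-evoked depolarization via CHT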
T1 sequence (Q9GZV3 whole entry): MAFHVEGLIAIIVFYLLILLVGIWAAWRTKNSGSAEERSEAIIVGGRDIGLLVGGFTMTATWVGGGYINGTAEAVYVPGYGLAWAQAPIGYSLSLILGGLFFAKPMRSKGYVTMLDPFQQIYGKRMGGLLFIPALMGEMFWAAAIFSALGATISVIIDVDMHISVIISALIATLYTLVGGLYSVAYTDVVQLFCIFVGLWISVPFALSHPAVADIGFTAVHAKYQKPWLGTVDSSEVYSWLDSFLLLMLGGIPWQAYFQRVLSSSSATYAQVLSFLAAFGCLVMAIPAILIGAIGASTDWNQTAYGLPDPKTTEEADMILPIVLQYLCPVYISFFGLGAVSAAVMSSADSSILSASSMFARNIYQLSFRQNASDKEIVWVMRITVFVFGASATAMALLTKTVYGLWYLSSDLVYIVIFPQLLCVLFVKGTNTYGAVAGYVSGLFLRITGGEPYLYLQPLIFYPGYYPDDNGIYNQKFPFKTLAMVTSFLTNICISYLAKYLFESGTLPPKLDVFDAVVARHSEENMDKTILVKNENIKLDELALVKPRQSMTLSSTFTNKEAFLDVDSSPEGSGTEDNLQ

[3] = molecular target: T1, High affinity choline transporter 1; experiment: human choline transporter blockers, potency – cell-based, 5-point CRC, membrane potential dye, dose response (AID 504840); format: functional
Caspase-6 = molecular target: T2, Caspase-6 (Homo sapiens, UniProt P55212); experiment: inhibition of CASP6 peptide cleavage – biochemical, VEID-R110 fluorescence, cherry-pick, dose response (AID 720632)
T2 sequence (P55212 whole entry): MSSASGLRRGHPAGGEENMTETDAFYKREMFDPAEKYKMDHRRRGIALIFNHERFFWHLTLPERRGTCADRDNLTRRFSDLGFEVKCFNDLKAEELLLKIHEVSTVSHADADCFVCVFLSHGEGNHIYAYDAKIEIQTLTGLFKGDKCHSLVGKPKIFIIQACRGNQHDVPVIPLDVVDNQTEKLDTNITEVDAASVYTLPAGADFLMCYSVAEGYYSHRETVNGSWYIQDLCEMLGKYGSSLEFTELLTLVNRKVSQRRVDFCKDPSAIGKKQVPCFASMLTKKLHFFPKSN

[4] = molecular target: T3, Carboxy-terminal domain RNA polymerase II polypeptide A small phosphatase 1 (Homo sapiens, UniProt Q9GZU7); experiment: CTDSP1 inhibitors, concentration-response, biochemical, absorbance readout, ultra-high-throughput screen actives (AID 540297); format: functional
T3 sequence (Q9GZU7 whole entry): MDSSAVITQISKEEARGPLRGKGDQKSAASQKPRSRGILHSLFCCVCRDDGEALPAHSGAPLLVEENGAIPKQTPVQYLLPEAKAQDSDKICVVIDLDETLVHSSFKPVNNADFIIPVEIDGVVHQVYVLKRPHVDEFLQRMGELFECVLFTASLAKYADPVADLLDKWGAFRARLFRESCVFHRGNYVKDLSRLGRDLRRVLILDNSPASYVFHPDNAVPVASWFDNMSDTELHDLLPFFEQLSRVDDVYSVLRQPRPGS

[5] = molecular target: T4, Beta-adrenergic receptor kinase 1 (Homo sapiens, UniProt P25098); experiment: aptamer displacement from bead-bound GRK2 – biochemical, cherry pick 1, bead flow cytometry, dose response (AID 504500)
T4 sequence (P25098 whole entry): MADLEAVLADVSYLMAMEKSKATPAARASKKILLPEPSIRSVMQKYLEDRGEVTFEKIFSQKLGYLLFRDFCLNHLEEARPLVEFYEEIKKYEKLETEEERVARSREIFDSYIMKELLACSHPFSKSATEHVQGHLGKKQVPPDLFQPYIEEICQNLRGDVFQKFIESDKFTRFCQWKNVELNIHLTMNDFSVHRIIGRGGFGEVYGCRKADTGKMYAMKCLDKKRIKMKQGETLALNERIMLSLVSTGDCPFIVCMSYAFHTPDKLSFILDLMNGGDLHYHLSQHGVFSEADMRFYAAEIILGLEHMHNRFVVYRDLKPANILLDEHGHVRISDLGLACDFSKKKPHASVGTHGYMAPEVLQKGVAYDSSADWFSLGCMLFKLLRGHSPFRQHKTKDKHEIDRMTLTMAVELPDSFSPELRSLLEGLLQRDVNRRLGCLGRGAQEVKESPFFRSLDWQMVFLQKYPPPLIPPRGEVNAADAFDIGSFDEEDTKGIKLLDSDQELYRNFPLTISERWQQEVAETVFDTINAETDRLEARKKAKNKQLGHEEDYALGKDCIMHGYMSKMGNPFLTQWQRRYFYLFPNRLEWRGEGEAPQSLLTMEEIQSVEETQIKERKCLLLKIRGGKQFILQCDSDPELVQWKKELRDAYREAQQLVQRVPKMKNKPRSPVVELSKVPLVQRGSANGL

[6] = molecular target: Glucose-6-phosphate 1-dehydrogenase (Homo sapiens, UniProt P11413); experiment: inhibition of Homo sapiens G6PD, dose series – biochemical, fluorescence, selectivity assay for P. falciparum G6PD inhibitor project, dose response (AID 504792); format: functional
Melanocortin receptor 4 = Melanocortin receptor 4 (Homo sapiens, UniProt P32245); format: functional, cell-based;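 note: Cell-based assay with luminescence read-out, confirmatory dose-response testing for agonist activity of biased ligands at MC4R; human U2OS cells with tagged receptor and beta-arrestin; potency of agonists that increase receptor coupling to beta-arrestin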
Melanocortin receptor 4, sequence (P32245 whole entry): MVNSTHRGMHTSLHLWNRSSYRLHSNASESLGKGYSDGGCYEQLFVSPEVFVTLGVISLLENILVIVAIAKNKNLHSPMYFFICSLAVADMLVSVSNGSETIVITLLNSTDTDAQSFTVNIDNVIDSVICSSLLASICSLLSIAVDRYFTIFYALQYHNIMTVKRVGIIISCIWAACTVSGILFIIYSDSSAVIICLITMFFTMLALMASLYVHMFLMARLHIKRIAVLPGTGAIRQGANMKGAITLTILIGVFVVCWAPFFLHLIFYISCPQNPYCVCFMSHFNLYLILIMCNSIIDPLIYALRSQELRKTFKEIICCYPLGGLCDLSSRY

[7] = molecular target: Voltage-dependent T-type calcium channel subunit alpha-1H (Homo sapiens, UniProt O95180); format: functional;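 note: channel activity triggered by adding a high calcium stimulation buffer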
Voltage-dependent T-type calcium channel subunit alpha-1H, sequence (O95180 whole entry): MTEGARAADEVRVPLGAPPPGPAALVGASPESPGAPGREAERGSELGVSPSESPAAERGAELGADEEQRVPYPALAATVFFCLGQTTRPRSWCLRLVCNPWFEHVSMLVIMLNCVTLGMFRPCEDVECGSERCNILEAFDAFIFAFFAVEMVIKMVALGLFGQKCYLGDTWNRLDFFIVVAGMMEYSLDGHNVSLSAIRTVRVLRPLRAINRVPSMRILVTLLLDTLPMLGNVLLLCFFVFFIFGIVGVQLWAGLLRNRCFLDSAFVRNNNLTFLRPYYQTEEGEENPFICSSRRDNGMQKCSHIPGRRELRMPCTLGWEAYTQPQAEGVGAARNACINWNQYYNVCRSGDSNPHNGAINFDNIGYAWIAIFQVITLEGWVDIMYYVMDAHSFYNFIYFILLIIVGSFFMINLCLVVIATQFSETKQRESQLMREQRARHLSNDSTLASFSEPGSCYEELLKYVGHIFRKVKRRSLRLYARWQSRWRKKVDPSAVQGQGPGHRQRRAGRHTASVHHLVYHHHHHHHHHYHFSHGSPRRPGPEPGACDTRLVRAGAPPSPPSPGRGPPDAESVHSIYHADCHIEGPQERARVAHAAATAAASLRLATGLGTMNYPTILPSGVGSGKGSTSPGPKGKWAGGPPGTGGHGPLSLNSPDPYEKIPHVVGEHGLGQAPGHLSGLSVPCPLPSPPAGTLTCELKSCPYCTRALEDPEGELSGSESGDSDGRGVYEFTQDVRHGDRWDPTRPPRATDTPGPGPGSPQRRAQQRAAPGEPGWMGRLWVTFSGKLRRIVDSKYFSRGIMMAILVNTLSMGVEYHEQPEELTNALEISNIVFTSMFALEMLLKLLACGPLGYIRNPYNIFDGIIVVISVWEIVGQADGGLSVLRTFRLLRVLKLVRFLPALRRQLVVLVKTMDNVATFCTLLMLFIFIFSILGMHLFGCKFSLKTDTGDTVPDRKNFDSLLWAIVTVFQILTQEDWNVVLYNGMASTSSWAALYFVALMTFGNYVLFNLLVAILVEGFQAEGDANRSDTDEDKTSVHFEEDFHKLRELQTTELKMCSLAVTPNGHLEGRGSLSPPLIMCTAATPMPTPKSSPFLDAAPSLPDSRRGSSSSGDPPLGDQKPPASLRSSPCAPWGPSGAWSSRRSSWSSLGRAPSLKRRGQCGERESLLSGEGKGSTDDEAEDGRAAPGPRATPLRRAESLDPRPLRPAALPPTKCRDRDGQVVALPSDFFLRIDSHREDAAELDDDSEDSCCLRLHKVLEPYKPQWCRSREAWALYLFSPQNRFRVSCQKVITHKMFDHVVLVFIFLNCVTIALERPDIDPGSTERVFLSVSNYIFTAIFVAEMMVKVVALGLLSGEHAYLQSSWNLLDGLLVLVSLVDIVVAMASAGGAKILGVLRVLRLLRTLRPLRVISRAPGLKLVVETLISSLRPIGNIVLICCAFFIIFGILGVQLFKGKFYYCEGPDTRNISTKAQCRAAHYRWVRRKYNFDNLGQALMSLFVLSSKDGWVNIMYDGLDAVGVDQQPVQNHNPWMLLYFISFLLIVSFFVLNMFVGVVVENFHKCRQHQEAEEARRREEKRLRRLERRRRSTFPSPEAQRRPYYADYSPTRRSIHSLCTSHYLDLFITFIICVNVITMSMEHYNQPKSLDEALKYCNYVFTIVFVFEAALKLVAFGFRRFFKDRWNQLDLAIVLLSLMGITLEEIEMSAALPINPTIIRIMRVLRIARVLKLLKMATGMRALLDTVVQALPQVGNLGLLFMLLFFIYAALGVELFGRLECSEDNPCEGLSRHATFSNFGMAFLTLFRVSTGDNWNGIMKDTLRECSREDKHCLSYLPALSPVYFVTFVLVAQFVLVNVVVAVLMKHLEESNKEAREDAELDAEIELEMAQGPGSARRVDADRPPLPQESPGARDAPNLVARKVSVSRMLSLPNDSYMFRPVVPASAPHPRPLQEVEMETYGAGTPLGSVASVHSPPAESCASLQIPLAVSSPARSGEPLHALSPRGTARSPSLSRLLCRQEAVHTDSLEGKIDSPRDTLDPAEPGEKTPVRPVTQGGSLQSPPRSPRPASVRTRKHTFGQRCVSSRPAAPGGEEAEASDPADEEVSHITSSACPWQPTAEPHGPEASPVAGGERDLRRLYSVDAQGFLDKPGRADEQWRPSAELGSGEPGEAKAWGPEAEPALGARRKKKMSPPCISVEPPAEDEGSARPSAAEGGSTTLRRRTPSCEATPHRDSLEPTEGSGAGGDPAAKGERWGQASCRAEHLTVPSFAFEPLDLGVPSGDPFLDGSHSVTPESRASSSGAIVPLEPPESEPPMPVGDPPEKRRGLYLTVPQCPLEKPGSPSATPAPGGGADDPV

[8] = molecular target: DNA (cytosine-5)-methyltransferase 1 (Homo sapiens, UniProt P26358); experiment: inhibition of DNA methylation by DNMT1 – biochemical, fluorescent molecular beacon, confirmation (AID 602386); format: functional
[9] = molecular target: Tyrosine-protein phosphatase non-receptor type 5 (Homo sapiens, UniProt P54829); experiment: PTPN5 enzyme inhibition – biochemical, fluorescence intensity, uHTS hits, confirmation (AID 602372); format: functional; conditions: read-out: IC50_Mean
Tyrosine-protein phosphatase non-receptor type 5, sequence (P54829 whole entry): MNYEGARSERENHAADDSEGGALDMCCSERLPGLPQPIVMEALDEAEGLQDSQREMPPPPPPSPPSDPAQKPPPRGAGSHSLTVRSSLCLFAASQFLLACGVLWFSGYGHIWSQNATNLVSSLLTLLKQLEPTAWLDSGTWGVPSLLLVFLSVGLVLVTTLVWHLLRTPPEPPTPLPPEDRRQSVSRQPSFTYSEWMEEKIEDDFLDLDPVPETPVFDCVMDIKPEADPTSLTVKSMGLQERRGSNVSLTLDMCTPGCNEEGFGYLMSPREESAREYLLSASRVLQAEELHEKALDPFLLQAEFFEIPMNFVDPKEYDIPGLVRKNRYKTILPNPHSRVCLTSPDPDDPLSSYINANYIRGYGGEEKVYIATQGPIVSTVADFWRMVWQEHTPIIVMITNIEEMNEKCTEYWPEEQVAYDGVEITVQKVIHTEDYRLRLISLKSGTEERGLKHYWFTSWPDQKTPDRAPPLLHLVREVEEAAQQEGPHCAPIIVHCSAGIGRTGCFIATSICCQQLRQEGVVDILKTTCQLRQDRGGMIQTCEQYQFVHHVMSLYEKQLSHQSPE

[10] = molecular target: Tyrosine-protein phosphatase non-receptor type 11 (Homo sapiens, UniProt Q06124); experiment: PTPN11 enzyme inhibitors – biochemical, selectivity assay for STEP inhibitor project, dose response (AID 602367); format: functional; conditions: read-out: IC50_Mean
[11] = molecular target: Dual specificity protein phosphatase 3 (Homo sapiens, UniProt P51452); experiment: VHR phosphatase inhibition, dose response, selectivity assay for STEP inhibitor project, biochemical (AID 602374); format: functional; conditions: read-out: IC50_Mean
Dual specificity protein phosphatase 3, sequence (P51452 whole entry): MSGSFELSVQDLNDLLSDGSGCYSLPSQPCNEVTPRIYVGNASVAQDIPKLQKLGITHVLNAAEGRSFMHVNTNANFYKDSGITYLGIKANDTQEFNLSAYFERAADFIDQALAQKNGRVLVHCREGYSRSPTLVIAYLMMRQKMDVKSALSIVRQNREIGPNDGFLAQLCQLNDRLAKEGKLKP

[12] = molecular target: DNA dC->dU-editing enzyme APOBEC-3G (Homo sapiens, UniProt Q9HC16); experiment: SAR analysis of small molecule inhibitors of APOBEC3G DNA Deaminase via a fluorescence-based single-stranded DNA deaminase assay - Set 2.; format: functional; conditions: read-out: IC50_Mean
DNA dC->dU-editing enzyme APOBEC-3G, sequence (Q9HC16 whole entry): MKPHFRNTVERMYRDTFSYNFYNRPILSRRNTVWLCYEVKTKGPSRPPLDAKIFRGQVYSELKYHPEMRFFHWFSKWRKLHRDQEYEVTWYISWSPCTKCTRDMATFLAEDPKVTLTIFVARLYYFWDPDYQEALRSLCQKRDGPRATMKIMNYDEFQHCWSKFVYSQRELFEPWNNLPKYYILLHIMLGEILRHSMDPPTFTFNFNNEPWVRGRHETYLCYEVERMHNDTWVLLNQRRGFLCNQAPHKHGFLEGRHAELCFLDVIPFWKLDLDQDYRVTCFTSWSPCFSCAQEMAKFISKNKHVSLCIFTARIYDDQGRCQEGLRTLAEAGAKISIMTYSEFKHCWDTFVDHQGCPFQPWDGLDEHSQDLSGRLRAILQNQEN

[13] = molecular target: DNA dC->dU-editing enzyme APOBEC-3A (Homo sapiens, UniProt P31941); experiment: SAR analysis of small molecule inhibitors of APOBEC3A DNA Deaminase via a fluorescence-based single-stranded DNA deaminase assay - Set 2.; format: functional; conditions: read-out: IC50_Mean
DNA dC->dU-editing enzyme APOBEC-3A, sequence (P31941 whole entry): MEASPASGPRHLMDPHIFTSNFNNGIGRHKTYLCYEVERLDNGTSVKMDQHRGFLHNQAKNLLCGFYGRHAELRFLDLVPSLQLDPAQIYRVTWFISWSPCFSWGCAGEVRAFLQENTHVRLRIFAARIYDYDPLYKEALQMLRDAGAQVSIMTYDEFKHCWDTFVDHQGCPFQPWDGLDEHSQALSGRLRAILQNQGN

[14] = THP-1 cell cytotoxicity, cytotoxicity control, set 4 (AID 504911); format: functional; conditions: Mycobacterium tuberculosis
[15] = molecular target: T5, Apoptotic protease-activating factor 1 (Homo sapiens, UniProt O14727); experiment: SAR analysis of small molecule Activators of Apaf-1 in a Fluorescent assay.; format: functional; conditions: read-out: EC50_Mean;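 note: caspase-3 cleavage of fluorogenic Rh110 DEVD substrate downstream of apoptosome activation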
T5 sequence (O14727 whole entry): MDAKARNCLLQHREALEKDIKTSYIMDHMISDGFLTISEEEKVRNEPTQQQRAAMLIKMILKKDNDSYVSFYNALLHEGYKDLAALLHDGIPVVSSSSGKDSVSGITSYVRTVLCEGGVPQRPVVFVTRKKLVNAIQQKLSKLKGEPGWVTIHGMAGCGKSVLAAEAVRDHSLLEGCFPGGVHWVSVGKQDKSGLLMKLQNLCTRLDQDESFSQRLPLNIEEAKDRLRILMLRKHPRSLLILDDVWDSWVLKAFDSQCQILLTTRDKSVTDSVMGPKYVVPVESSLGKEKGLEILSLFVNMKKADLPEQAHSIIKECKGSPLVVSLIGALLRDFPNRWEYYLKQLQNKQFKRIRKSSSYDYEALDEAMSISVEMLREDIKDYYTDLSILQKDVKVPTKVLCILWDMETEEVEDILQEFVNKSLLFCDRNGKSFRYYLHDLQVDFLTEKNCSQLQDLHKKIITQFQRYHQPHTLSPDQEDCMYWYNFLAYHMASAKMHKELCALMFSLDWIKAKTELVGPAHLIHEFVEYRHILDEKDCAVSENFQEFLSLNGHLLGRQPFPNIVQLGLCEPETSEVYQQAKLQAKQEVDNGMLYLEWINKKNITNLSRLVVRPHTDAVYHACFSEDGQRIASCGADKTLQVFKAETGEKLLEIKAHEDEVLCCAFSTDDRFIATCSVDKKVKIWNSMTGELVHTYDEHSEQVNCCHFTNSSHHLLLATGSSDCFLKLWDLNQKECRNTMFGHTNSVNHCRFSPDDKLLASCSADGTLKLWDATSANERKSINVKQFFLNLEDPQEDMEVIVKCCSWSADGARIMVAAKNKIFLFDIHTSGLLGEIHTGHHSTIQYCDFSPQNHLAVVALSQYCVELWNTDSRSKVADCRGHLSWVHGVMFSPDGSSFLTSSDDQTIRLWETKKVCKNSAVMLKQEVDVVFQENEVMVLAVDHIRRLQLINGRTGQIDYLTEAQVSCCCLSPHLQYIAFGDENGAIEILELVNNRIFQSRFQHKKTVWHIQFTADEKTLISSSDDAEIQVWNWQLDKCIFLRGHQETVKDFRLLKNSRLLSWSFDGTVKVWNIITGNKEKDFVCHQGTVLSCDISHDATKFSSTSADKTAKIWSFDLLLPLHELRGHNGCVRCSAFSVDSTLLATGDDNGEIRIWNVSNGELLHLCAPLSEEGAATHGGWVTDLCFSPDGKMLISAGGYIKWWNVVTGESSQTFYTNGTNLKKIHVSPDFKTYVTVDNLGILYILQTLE

[16] = molecular target: T6, Aryl hydrocarbon receptor (Homo sapiens, UniProt P35869); conditions: Potency;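 note: confirmatory quantitative high-throughput screen measuring activation of the AhR signaling pathway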
T6 sequence (P35869 whole entry): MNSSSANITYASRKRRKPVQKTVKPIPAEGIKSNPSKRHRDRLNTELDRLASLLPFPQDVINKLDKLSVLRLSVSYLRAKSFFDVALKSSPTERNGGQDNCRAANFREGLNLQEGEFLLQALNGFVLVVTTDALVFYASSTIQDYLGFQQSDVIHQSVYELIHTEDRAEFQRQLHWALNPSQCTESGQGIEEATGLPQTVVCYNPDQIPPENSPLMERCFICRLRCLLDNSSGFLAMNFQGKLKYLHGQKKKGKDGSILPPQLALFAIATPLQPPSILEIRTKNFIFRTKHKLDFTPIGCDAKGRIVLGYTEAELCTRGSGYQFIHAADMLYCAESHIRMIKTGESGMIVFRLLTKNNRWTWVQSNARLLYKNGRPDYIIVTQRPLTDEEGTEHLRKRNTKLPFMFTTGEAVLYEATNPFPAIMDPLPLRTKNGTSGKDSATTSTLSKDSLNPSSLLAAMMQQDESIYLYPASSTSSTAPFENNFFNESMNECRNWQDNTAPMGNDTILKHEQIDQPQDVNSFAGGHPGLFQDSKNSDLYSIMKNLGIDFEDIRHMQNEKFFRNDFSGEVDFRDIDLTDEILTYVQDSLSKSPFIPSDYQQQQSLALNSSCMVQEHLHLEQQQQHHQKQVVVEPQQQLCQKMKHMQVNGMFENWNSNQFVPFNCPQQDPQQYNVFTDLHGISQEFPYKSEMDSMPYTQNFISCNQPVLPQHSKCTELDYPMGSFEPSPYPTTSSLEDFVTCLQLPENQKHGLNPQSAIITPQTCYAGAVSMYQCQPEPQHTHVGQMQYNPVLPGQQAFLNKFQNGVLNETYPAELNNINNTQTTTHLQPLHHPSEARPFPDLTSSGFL

O=C(CCCn1c(=S)[nH]c2cc3c(cc2c1=O)OCO3)N1CCN(c2ccc(F)cc2)CC1
CC50 [1]: 26.2 µM (active)
IC50 (Phospholipase A2): 7.34 µM (active)
IC50 (Cysteine protease ATG4B): 13.5 µM (active)

CCn1cc(C(=O)NCCCN2CCC(C)CC2)c(=O)c2cc(S(=O)(=O)N(C)C3CCCCC3)ccc21
IC50 [2]: 7.94 µM (active)
IC50 [3]: 7.24 µM (active)

CCOc1ccc(CCNC(=O)C2CC(C)=CCC2C(=O)O)cc1OCC (configuration not stated)
AC50 (Caspase-6): 15.5 µM (active)
IC50 [4]: 21 µM (active)
EC50 [5]: 51.3 µM (inactive)

Clc1cccc(Cl)c1CNc1ccc(N2CCCC2)cc1
IC50 [6]: > 80 µM (inactive)
IC50 (Phospholipase A2): 7.99 µM (active)
IC50 (Cysteine protease ATG4B): 11.9 µM (active)

Cc1ccc2[nH]c(=O)c3cc(C(=O)N(CCCOC(C)C)Cc4ccco4)sc3c2c1
EC50 (Melanocortin receptor 4): > 89.2 µM (inactive)

O=C(Nc1nnc(C(F)(F)F)s1)C1COc2ccccc2O1 (configuration not stated)
IC50 [2]: 1.26 µM (active)
IC50 [3]: 1.55 µM (active)
EC50 [7]: 6.26 µM (active)

COc1cc(/C=C(\CCC(=O)O)c2nc3ccccc3s2)ccc1OCC(=O)Nc1c(Cl)cccc1Cl
IC50 [4]: 2.3 µM (active)
IC50 [8]: 10.1 µM (active)

CCCN(CC(=O)Nc1ccccc1OC)C(=O)Cc1ccc2c(c1)CCC2
IC50 [9]: 19.5 µM (active)
IC50 [10]: 4.79 µM (active)
IC50 [11]: 1.32 µM (active)

CN(Cc1ccccc1)C(=O)c1nn2cccnc2c1Cl
IC50 [12]: > 99 µM (inactive)
IC50 [13]: 73.8 µM (inactive)

O=C(CSc1nccc(=O)[nH]1)NC1CCCCC1
CC50 [14]: > 100 µM (active)

COC(=O)C(C)(N)Cc1c[nH]c2ccccc12 (configuration not stated)
EC50 [15]: > 100 µM (inactive)

Cc1nc2sc3c(c2c2n[nH]c(=S)n12)CCCC3
IC50 [12]: 0.693 µM (active)
IC50 [13]: > 99 µM (inactive)

N[C@@H](Cc1c[nH]c2ccc(O)cc12)C(=O)O [OXITRIPTAN]
AC50 [16]: 39.8 µM (inconclusive)
